Laboratory results: patent US8173813B2, “Quinolone and tetrahydroquinolone and related compounds having NOS inhibitory activity” (NeurAxon, Inc., priority 2007, dated 2012)
Where two headings read alike, the source gives them in different places.

Experiments:
Format in all cases: biochemical
[1] = molecular target: Recombinant human inducible NOS (iNOS) (Homo sapiens, UniProt P35228); experiment: Human iNOS enzyme assay, radiometric
[2] = molecular target: Nitric oxide synthase (endothelial, human recombinant) eNOS (Homo sapiens, UniProt P29474); experiment: Human eNOS enzyme assay ([3H]L-arginine to [3H]L-citrulline)
Nitric oxide synthase (endothelial, human recombinant) eNOS, sequence (P29474 2-1203): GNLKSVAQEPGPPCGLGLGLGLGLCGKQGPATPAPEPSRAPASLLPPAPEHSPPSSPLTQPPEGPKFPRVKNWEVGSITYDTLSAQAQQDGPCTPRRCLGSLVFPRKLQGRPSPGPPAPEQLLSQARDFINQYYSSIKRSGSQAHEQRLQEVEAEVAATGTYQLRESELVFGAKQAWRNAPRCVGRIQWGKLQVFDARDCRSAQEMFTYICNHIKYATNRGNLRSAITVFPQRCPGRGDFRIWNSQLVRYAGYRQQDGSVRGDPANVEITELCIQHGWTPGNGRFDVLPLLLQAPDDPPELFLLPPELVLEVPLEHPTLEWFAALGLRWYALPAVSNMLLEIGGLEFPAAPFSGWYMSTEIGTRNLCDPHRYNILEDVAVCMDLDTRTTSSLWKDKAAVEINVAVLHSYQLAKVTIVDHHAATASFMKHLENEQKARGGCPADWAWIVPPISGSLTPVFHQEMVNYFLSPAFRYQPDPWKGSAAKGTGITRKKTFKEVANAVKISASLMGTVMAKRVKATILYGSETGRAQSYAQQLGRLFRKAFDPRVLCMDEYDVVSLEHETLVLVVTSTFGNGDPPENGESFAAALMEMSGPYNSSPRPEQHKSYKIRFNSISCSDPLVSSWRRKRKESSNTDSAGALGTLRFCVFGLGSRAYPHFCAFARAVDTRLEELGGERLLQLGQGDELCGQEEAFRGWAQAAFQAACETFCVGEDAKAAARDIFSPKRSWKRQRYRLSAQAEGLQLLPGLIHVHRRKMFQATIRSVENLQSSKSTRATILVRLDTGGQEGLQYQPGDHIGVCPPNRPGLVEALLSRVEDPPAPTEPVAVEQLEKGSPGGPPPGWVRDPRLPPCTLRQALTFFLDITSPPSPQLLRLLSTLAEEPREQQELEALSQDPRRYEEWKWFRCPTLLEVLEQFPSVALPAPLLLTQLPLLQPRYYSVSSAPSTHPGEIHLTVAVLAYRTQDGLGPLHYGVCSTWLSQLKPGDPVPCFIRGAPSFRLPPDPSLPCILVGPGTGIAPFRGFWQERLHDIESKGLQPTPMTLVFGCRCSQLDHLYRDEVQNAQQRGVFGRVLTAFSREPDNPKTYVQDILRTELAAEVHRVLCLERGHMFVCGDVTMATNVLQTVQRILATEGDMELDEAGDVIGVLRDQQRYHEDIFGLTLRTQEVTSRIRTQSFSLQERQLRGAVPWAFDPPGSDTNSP

[3] = molecular target: Nitric oxide synthase (neuronal, human recombinant) nNOS (Homo sapiens, UniProt P29475); experiment: Human nNOS enzyme assay ([3H]L-arginine to [3H]L-citrulline)
Nitric oxide synthase (neuronal, human recombinant) nNOS, sequence (P29475 whole entry): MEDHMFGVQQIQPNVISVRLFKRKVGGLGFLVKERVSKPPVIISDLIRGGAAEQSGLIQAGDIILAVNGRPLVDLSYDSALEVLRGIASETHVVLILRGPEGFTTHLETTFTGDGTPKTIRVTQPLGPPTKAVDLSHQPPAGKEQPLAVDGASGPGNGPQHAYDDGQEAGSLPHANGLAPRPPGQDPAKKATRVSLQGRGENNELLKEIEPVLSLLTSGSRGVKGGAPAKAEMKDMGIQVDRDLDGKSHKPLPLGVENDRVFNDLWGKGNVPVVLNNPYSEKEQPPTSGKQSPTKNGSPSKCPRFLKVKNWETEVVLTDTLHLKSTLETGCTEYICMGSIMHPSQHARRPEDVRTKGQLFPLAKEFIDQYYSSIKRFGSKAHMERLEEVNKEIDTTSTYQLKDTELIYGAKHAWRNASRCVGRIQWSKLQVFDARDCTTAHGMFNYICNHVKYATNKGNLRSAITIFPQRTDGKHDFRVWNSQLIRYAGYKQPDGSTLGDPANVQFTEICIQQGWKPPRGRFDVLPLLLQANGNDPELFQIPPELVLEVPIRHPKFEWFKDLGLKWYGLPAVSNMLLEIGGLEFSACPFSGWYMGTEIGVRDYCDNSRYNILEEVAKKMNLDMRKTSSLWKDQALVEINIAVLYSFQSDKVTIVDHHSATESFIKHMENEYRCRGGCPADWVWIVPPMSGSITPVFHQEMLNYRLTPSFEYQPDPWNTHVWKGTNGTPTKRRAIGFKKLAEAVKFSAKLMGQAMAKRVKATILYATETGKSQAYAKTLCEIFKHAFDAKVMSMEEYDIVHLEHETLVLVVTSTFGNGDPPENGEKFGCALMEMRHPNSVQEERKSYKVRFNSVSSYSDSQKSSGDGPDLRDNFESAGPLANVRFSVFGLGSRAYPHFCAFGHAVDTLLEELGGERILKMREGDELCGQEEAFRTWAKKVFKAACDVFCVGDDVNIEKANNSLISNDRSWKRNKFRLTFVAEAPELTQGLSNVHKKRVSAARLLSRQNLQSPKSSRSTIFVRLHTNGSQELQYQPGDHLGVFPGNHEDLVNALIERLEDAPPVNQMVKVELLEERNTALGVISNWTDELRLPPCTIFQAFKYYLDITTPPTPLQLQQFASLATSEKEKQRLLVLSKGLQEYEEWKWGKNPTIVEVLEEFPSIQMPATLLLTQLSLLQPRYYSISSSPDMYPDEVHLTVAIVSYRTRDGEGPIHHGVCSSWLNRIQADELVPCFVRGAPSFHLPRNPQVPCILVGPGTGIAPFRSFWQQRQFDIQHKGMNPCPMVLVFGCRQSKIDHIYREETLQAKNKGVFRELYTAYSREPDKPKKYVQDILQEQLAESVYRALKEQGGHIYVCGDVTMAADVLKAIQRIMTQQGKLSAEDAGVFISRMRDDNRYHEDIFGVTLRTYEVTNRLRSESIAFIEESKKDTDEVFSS

[4] = human recombinant iNOS, values without parentheses, read-out: hiNOS IC50
[5] = human recombinant eNOS, values without parentheses, read-out: heNOS IC50
[6] = human recombinant nNOS, values without parentheses, read-out: hnNOS IC50
[7] = human enzymes, ratio of eNOS IC50 to nNOS IC50

Recombinant human inducible NOS (iNOS), sequence (P35228 whole entry): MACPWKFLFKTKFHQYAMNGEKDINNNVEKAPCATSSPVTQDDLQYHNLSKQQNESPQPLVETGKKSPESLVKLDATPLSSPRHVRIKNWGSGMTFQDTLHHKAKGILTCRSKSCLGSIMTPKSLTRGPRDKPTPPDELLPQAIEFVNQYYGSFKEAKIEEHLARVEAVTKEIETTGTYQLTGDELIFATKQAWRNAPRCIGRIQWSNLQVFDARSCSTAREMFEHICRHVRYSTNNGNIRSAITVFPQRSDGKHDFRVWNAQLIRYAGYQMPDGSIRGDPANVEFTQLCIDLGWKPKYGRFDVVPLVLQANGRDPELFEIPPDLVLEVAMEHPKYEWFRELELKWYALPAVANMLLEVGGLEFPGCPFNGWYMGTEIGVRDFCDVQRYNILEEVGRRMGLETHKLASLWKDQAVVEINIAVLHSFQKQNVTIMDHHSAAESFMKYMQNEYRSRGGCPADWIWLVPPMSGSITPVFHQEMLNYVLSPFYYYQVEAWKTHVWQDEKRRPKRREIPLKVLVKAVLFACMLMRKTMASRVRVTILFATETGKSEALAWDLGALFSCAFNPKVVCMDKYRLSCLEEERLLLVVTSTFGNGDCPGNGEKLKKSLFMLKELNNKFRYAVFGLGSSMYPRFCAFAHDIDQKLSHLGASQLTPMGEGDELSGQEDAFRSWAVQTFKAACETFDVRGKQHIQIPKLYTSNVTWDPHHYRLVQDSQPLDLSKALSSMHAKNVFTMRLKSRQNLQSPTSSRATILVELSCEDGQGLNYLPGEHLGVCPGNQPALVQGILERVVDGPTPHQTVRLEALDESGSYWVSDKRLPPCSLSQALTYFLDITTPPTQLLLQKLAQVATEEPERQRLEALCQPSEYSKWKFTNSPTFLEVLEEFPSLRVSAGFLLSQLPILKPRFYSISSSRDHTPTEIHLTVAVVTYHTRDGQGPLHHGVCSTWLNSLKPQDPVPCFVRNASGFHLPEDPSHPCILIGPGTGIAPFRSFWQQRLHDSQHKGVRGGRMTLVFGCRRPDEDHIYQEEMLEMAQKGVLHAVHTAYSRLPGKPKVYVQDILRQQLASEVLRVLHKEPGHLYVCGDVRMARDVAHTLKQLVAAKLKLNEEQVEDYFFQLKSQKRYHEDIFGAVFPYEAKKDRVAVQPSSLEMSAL

Row | SMILES | IC50 [1, 4] [µM] | IC50 [2, 5] [µM] | IC50 [3, 6] [µM] | Selectivity eNOS/nNOS [3, 7] | further results
1 | CCN(CC)CCN1C(=O)CCc2cc(NC(=N)c3cccs3)ccc21 [Example 2, N-(1-(2-(diethylamino)ethyl)-2-oxo-1,2,3,4-tetrahydroquinolin-6-yl)thiophene-2-carboximidamide] | 22 | – | – | – | IC50 ([2]; read-out: heNOS IC50): 73.6 µM; IC50 ([3]; read-out: hnNOS IC50): 2.21 µM
2 | N=C(Nc1ccc2c(c1)CCC(=O)N2CCCN1CCOCC1)c1cccs1 [Example 5, N-(1-(3-morpholinopropyl)-2-oxo-1,2,3,4-tetrahydroquinolin-6-yl)thiophene-2-carboximidamide] | – | 105 | 5.46 | – | Selectivity eNOS/nNOS [3]: 19.2
3 | N=C(Nc1ccc2c(c1)CCC(=O)N2CCN1CCCC1)c1cccs1 [Example 6, N-(2-oxo-1-(2-(pyrrolidin-1-yl)ethyl)-1,2,3,4-tetrahydroquinolin-6-yl)thiophene-2-carboximidamide] | > 100 | – | 0.165 | – | IC50 ([2]; read-out: heNOS IC50): 29.8 µM
4 | CCN(CC)CCCN1C(=O)CCc2cc(NC(=N)c3cccs3)ccc21 [Example 7, N-(1-(3-(diethylamino)propyl)-2-oxo-1,2,3,4-tetrahydroquinolin-6-yl)thiophene-2-carboximidamide] | > 100 | 13.9 | 0.869 | – | Selectivity eNOS/nNOS [3]: 16
5 | N=C(Nc1ccc2c(c1)CCC(=O)N2CCCN1CCCC1)c1cccs1 [Example 8, N-(1-(3-(pyrrolidin-1-yl)propyl)-2-oxo-1,2,3,4-tetrahydroquinolin-6-yl)thiophene-2-carboximidamide] | – | – | – | – | IC50 ([2]; read-out: heNOS IC50): 24.5 µM
6 | N=C(Nc1ccc2c(c1)CCC(=O)N2CCCN1CCCCC1)c1cccs1 [Example 9, N-(1-(3-(piperidin-1-yl)propyl)-2-oxo-1,2,3,4-tetrahydroquinolin-6-yl)thiophene-2-carboximidamide] | – | 10.2 | 0.798 | 12.8 | –
7 | CN(C)CCCC1Cc2cc(NC(=N)c3cccs3)ccc2NC1=O.Cl.Cl (stereo not drawn) [Example 10, N-(3-(3-(dimethylamino)propyl)-2-oxo-1,2,3,4-tetrahydroquinolin-6-yl)thiophene-2-carboximidamide dihydrochloride] | > 100 | 10.8 | 0.198 | 54.5 | –
8 | CN1CCCC1CCN1C(=O)CCc2cc(NC(=N)c3cccs3)ccc21 (stereo not drawn) [Example 13, N-(1-(2-(1-methylpyrrolidin-2-yl)ethyl)-2-oxo-1,2,3,4-tetrahydroquinolin-6-yl)thiophene-2-carboximidamide] | – | 68.9 | 1.1 | 62.6 | –
9 | CC(CN1C(=O)CCc2cc(NC(=N)c3cccs3)ccc21)N1CCCC1 (stereo not drawn) [Example 15, N-(2-oxo-1-(2-(pyrrolidin-1-yl)propyl)-1,2,3,4-tetrahydroquinolin-6-yl)thiophene-2-carboximidamide] | > 100 | 52.6 | 5.8 | 9.1 | –
10 | CC(CN1CCCc2cc(NC(=N)c3cccs3)ccc21)N1CCCC1 (stereo not drawn) [Example 16, N-(1-(2-(pyrrolidin-1-yl)propyl)-1,2,3,4-tetrahydroquinolin-6-yl)thiophene-2-carboximidamide] | 19.4 | 33.7 | 0.7 | 48.1 | –
11 | CC1C(=O)N(C2CCN(C)CC2)c2ccc(NC(=N)c3cccs3)cc21 (stereo not drawn) [Example 17, N-(3-Methyl-1-(1-methylpiperidin-4-yl)-2-oxoindolin-5-yl)thiophene-2-carboximidamide] | – | – | – | – | IC50 ([1]; hiNOS IC50): 57 µM; IC50 ([2]; heNOS IC50): 155 µM; Selectivity eNOS/nNOS [3]: 31; IC50 ([3]; hnNOS IC50): 4.9 µM
12 | CN1CCC(N2CCCc3cc(NC(=N)c4cccs4)ccc32)CC1 [Example 18, N-(1-(1-methylpiperidin-4-yl)-1,2,3,4-tetrahydroquinolin-6-yl)thiophene-2-carboximidamide] | – | – | – | – | IC50 ([1]; hiNOS IC50): > 100 µM; IC50 ([2]; heNOS IC50): 50 µM; Selectivity eNOS/nNOS [3]: 5.7; IC50 ([3]; hnNOS IC50): 8.8 µM
13 | CN1CCC(N2C(=O)CCc3cc(NC(=N)c4cccs4)ccc32)CC1 [Example 22, N-(1-(1-Methylpiperidin-4-yl)-2-oxo-1,2,3,4-tetrahydroquinolin-6-yl)thiophene-2-carboximidamide] | – | – | – | – | IC50 ([1]; hiNOS IC50): > 100 µM; IC50 ([2]; heNOS IC50): 151 µM; Selectivity eNOS/nNOS [3]: 87.8; IC50 ([3]; hnNOS IC50): 1.72 µM
14 | CN(C)CCN1C(=O)CCCc2cc(NC(=N)c3cccs3)ccc21 [Example 25, N-(1-(2-(Dimethylamino)ethyl)-2-oxo-2,3,4,5-tetrahydro-1H-benzo[b]azepin-7-yl)thiophene-2-carboximidamide] | > 100 | 151 | 12.3 | 12.3 | –
15 | N=C(Nc1ccc2c(c1)CCCC(=O)N2CCN1CCCC1)c1cccs1 [Example 26, N-(2-Oxo-1-(2-(pyrrolidin-1-yl)ethyl)-2,3,4,5-tetrahydro-1H-benzo[b]azepin-7-yl)thiophene-2-carboximidamide] | > 100 | 80.1 | 9.91 | 8.1 | –
16 | CN(C)CCN1C(=O)CCCc2cccc(NC(=N)c3cccs3)c21 [Example 33, N-(1-(2-(Dimethylamino)ethyl)-2-oxo-2,3,4,5-tetrahydro-1H-benzo[b]azepin-9-yl)thiophene-2-carboximidamide] | > 100 | 193 | 2.2 | 90 | –

Row | SMILES | IC50 [1, 4] [µM] | IC50 [2, 5] [µM] | IC50 [3, 6] [µM] | Selectivity eNOS/nNOS [3, 7] | further results
17 | CNCCN1C(=O)CCc2cc(NC(=N)c3cccs3)ccc21 [Example 34, N-(1-(2-(Methylamino)ethyl)-2-oxo-1,2,3,4-tetrahydroquinolin-6-yl)thiophene-2-carboximidamide] | 1.28 | 45.1 | 0.39 | 115 | –
18 | CNCCN1CCCCc2cc(NC(=N)c3cccs3)ccc21 [Example 36, N-(1-(2-(Methylamino)ethyl)-2,3,4,5-tetrahydro-1H-benzo[b]azepin-7-yl)thiophene-2-carboximidamide] | – | – | 0.38 | – | IC50 ([2]; read-out: heNOS IC50): 47.1 µM
19 | CN1CCCC1CCN1CCCCc2cc(NC(=N)c3cccs3)ccc21 (stereo not drawn) [Example 45, N-(1-(2-(1-Methylpyrrolidin-2-yl)ethyl)-2,3,4,5-tetrahydro-1H-benzo[b]azepin-7-yl)thiophene-2-carboximidamide] | – | – | 1.8 | – | IC50 ([2]; read-out: heNOS IC50): 30.8 µM
20 | CN1CCC(N2CCCCc3cc(NC(=N)c4cccs4)ccc32)C1 (stereo not drawn) [Example 46, N-(1-(1-Methylpyrrolidin-3-yl)-2,3,4,5-tetrahydro-1H-benzo[b]azepin-7-yl)thiophene-2-carboximidamide] | – | – | – | – | IC50 ([2]; read-out: heNOS IC50): 60.5 µM; IC50 ([3]; read-out: hnNOS IC50): 0.08 µM
21 | N=C(Nc1ccc2c(c1)CCN2C1CCNC1)c1cccs1 (stereo not drawn) [Example 49, N-(1-(Pyrrolidin-3-yl)indolin-5-yl)thiophene-2-carboximidamide] | – | 5.45 | 0.08 | – | –
22 | CN1CCC(N2CCc3cc(NC(=N)c4cccs4)ccc32)C1 (stereo not drawn) [Example 50, N-(1-(1-Methylpyrrolidin-3-yl)indolin-5-yl)thiophene-2-carboximidamide] | – | 21.2 | 0.43 | – | –
23 | CCN(C)CCN1CCCc2cc(NC(=N)c3cccs3)ccc21 [Example 51, N-(1-(2-(ethyl(methyl)amino)ethyl)-1,2,3,4-tetrahydroquinolin-6-yl)thiophene-2-carboximidamide] | – | – | 0.09 | – | IC50 ([2]; read-out: heNOS IC50): 33.3 µM; Selectivity eNOS/nNOS [3]: 370
24 | CNCCN1CCCc2cc(NC(=N)c3cccs3)cc(F)c21.Cl.Cl [Example 52, N-(8-fluoro-1-(2-(methylamino)ethyl)-1,2,3,4-tetrahydroquinolin-6-yl)thiophene-2-carboximidamide dihydrochloride] | – | 13.5 | 0.3 | 45 | –
25 | CCN(CC)CCN1CCCc2cc(NC(=N)c3cccs3)ccc21 [Example 53, N-(1-(2-(diethylamino)ethyl)-1,2,3,4-tetrahydroquinolin-6-yl)thiophene-2-carboximidamide] | – | – | 0.25 | – | –
26 | CNCCCN1CCCc2cc(NC(=N)c3cccs3)ccc21 [Example 63, N-(1-(3-(methylamino)propyl)-2,3,4-tetrahydroquinolin-6-yl)thiophene-2-carboximidamide] | – | – | 0.235 | – | IC50 ([2]; read-out: heNOS IC50): 22.5 µM
27 | N=C(Nc1ccc2c(c1)CCCN2CCN1CCOCC1)c1cccs1 [Example 64, N-(1-(2-morpholinoethyl)-1,2,3,4-tetrahydroquinolin-6-yl)thiophene-2-carboximidamide] | – | 82.5 | 0.68 | 121 | –
28 | N=C(Nc1ccc2c(c1)CCN2CCN1CCCC1)c1cccs1 [Example 67, N-(1-(2-(Pyrrolidin-1-yl)ethyl)indolin-5-yl)thiophene-2-carboximidamide] | – | 26.9 | 0.092 | 292 | –
29 | CN(C)CCN1CCc2cc(NC(=N)c3cccs3)ccc21 [Example 68, N-(1-(2-(Dimethylamino)ethyl)indolin-5-yl)thiophene-2-carboximidamide] | – | 12.9 | 0.041 | 316 | –
30 | CN(CCO)CCCN1CCCc2cc(NC(=N)c3cccs3)ccc21 [Example 69, N-(1-(3-((2-Hydroxyethyl)(methyl)amino)propyl)-1,2,3,4-tetrahydroquinolin-6-yl)thiophene-2-carboximidamide] | – | 39.9 | 0.078 | 511 | –
31 | CNC1CCC(N2CCc3cc(NC(=N)c4cccs4)ccc32)CC1 (stereo not drawn) [Example 70, N-(1-(4-(Methylamino)cyclohexyl)indolin-5-yl)thiophene-2-carboximidamide] | – | 17.9 | 0.21 | 86.5 | –
32 | CNC1CCC(N2CCc3cc(NC(=N)c4cccs4)ccc32)CC1 (stereo not drawn) [Example 71, N-(1-(4-(Methylamino)cyclohexyl)indolin-5-yl)thiophene-2-carboximidamide] | – | 34.1 | 0.105 | – | –
